Assay results from ChEMBL document CHEMBL1132672, “Substituted 7H-pyrido[4,3-c]carbazoles with potent anti-HIV activity” (Bioorg Med Chem Lett, 1999).
In brackets after ≈: the same amount, converted by molar mass.

Experiments:
[1] = Therapeutic index(TI) was evaluated (IC50/EC50); settings: read-out: TI
H9 [2] = test: Inhibitory concentration required to inhibit uninfected H9 lymphocytic cell growth by 50%; format: functional, cell-based; settings: Homo sapiens
H9 [3] = test: Inhibitory concentration required to inhibit HIV replication in H9 lymphocytes growth by 50%; format: functional, cell-based; settings: Homo sapiens

Row | SMILES | selectivity ratio [1] | IC50 (H9 [2]) [µg/mL] | EC50 (H9 [3]) [µg/mL]
1 | COc1cc2c(c3ccccc3n2C)c2c(Cl)nccc12 | 136 | 26 (≈ 87.6 µM) | 0.19 (≈ 0.64 µM)
2 | COc1cc2c(c3ccccc3n2C)c2c(NCCN3CCCCC3)nccc12 | 47.9 | 0.24 (≈ 0.618 µM) | 0.005 (≈ 0.0129 µM)
3 | COc1cc2c(c3ccccc3n2C)c2c(NCCN)nccc12 | 10.6 | 0.23 (≈ 0.718 µM) | 0.022 (≈ 0.0687 µM)
4 | COc1cc2c(c3ccccc3n2C)c2c(NCCCO)nccc12 | 153 | 0.15 (≈ 0.447 µM) | 0.001 (≈ 0.00298 µM)
5 | COc1cc2c(c3cc(O)ccc3n2C)c2c(Cl)nccc12 | 3.6 | 5 (≈ 16 µM) | 1.4 (≈ 4.48 µM)
6 | COc1cc2c(c3ccccc3n2C)c2c(NCCN(C)C)nccc12 | 8.9 | 0.23 (≈ 0.66 µM) | 0.026 (≈ 0.0746 µM)
7 | COc1cc2c(c3cnccc13)c1ccccc1n2C | 503 | 2.7 (≈ 10.3 µM) | 0.0054 (≈ 0.0206 µM)
